Test results taken from PubChem BioAssay AID2060359 (Molecular Pharmacology Branch, DTP, NCI, 2025).

Test system: 276233-004-R-J1-PDC spheroids with HUVEC/MSC, viability
Assay: Anticancer human tumor 276233-004-R-J1-PDC patient-derived colon adenocarcinoma cell line growth inhibition [TAK]
Conditions: for IC50: curve of first compound; for viability, T/C: stronger effect = lower value
Summary of the method: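 Spheroids of 60% malignant cells, 25% HUVEC and 15% hMSC were exposed to targeted agents combined with TAK-243 or ipatasertib. Concentrations started at or near clinical Cmax (10 microM if unknown) and descended in half-log steps.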
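Note: spheroids exposed to drugs for seven days before the viability read.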

SMILES: CC(C)CC(NC(=O)CNC(=O)c1cc(Cl)ccc1Cl)B1OC(=O)CC(CC(=O)O)(C(=O)O)O1 (stereo not given) + CC(C)NCC(C(=O)N1CCN(c2ncnc3c2C(C)CC3O)CC1)c1ccc(Cl)cc1
- IC50 (second compound 0.3 µM): 53.9 nM
- IC50 (second compound 0.949 µM): 52.3 nM
- IC50 (second compound 3 µM): 42.1 nM
- IC50 (second compound 9.49 µM): 31.7 nM
- IC50 (second compound 30 µM): 17.5 nM
- viability, T/C (second compound 0.3 µM, first compound 0.000316 µM): 112%
- viability, T/C (second compound 0.3 µM, first compound 0.001 µM): 103%
- viability, T/C (second compound 0.3 µM, first compound 0.00316 µM): 102%
- viability, T/C (second compound 0.3 µM, first compound 0.01 µM): 106%
- viability, T/C (second compound 0.3 µM, first compound 0.0316 µM): 81.2%
- viability, T/C (second compound 0.3 µM, first compound 0.1 µM): 14.1%
- viability, T/C (second compound 0.949 µM, first compound 0.000316 µM): 112%
- viability, T/C (second compound 0.949 µM, first compound 0.001 µM): 95.7%
- viability, T/C (second compound 0.949 µM, first compound 0.00316 µM): 101%
- viability, T/C (second compound 0.949 µM, first compound 0.01 µM): 91.3%
- viability, T/C (second compound 0.949 µM, first compound 0.0316 µM): 82.1%
- viability, T/C (second compound 0.949 µM, first compound 0.1 µM): 12%
- viability, T/C (second compound 3 µM, first compound 0.000316 µM): 90.4%
- viability, T/C (second compound 3 µM, first compound 0.001 µM): 89.6%
- viability, T/C (second compound 3 µM, first compound 0.00316 µM): 84.3%
- viability, T/C (second compound 3 µM, first compound 0.01 µM): 79.4%
- viability, T/C (second compound 3 µM, first compound 0.0316 µM): 64.4%
- viability, T/C (second compound 3 µM, first compound 0.1 µM): 10.9%
- viability, T/C (second compound 9.49 µM, first compound 0.000316 µM): 74.6%
- viability, T/C (second compound 9.49 µM, first compound 0.001 µM): 84.8%
- viability, T/C (second compound 9.49 µM, first compound 0.00316 µM): 65.1%
- viability, T/C (second compound 9.49 µM, first compound 0.01 µM): 71.7%
- viability, T/C (second compound 9.49 µM, first compound 0.0316 µM): 49.2%
- viability, T/C (second compound 9.49 µM, first compound 0.1 µM): 13.5%
- viability, T/C (second compound 30 µM, first compound 0.000316 µM): 68.2%
- viability, T/C (second compound 30 µM, first compound 0.001 µM): 84.8%
- viability, T/C (second compound 30 µM, first compound 0.00316 µM): 60.5%
- viability, T/C (second compound 30 µM, first compound 0.01 µM): 63.7%
- viability, T/C (second compound 30 µM, first compound 0.0316 µM): 38.3%
- viability, T/C (second compound 30 µM, first compound 0.1 µM): 17.2%

SMILES: CC(=O)Nc1cccc(-n2c(=O)n(C3CC3)c(=O)c3c(Nc4ccc(I)cc4F)n(C)c(=O)c(C)c32)c1 + CC(C)NCC(C(=O)N1CCN(c2ncnc3c2C(C)CC3O)CC1)c1ccc(Cl)cc1
- IC50 (second compound 0.3 µM): 8.22 nM
- IC50 (second compound 0.949 µM): 5.23 nM
- IC50 (second compound 3 µM): 3.25 nM
- IC50 (second compound 9.49 µM): 1.82 nM
- IC50 (second compound 30 µM): 0.326 nM
- viability, T/C (second compound 0.3 µM, first compound 94.9 pM): 101%
- viability, T/C (second compound 0.3 µM, first compound 0.0003 µM): 86.7%
- viability, T/C (second compound 0.3 µM, first compound 0.000949 µM): 67.2%
- viability, T/C (second compound 0.3 µM, first compound 0.003 µM): 73.8%
- viability, T/C (second compound 0.3 µM, first compound 0.00949 µM): 48.8%
- viability, T/C (second compound 0.3 µM, first compound 0.03 µM): 28.6%
- viability, T/C (second compound 0.949 µM, first compound 94.9 pM): 80.8%
- viability, T/C (second compound 0.949 µM, first compound 0.0003 µM): 84.8%
- viability, T/C (second compound 0.949 µM, first compound 0.000949 µM): 77.1%
- viability, T/C (second compound 0.949 µM, first compound 0.003 µM): 55.4%
- viability, T/C (second compound 0.949 µM, first compound 0.00949 µM): 43.2%
- viability, T/C (second compound 0.949 µM, first compound 0.03 µM): 26%
- viability, T/C (second compound 3 µM, first compound 94.9 pM): 77.9%
- viability, T/C (second compound 3 µM, first compound 0.0003 µM): 61.6%
- viability, T/C (second compound 3 µM, first compound 0.000949 µM): 64%
- viability, T/C (second compound 3 µM, first compound 0.003 µM): 48.9%
- viability, T/C (second compound 3 µM, first compound 0.00949 µM): 43.5%
- viability, T/C (second compound 3 µM, first compound 0.03 µM): 27.1%
- viability, T/C (second compound 9.49 µM, first compound 94.9 pM): 72.6%
- viability, T/C (second compound 9.49 µM, first compound 0.0003 µM): 69.3%
- viability, T/C (second compound 9.49 µM, first compound 0.000949 µM): 53.5%
- viability, T/C (second compound 9.49 µM, first compound 0.003 µM): 45.5%
- viability, T/C (second compound 9.49 µM, first compound 0.00949 µM): 33%
- viability, T/C (second compound 9.49 µM, first compound 0.03 µM): 18.4%
- viability, T/C (second compound 30 µM, first compound 94.9 pM): 45.8%
- viability, T/C (second compound 30 µM, first compound 0.0003 µM): 55.1%
- viability, T/C (second compound 30 µM, first compound 0.000949 µM): 45.3%
- viability, T/C (second compound 30 µM, first compound 0.003 µM): 27.8%
- viability, T/C (second compound 30 µM, first compound 0.00949 µM): 29.6%
- viability, T/C (second compound 30 µM, first compound 0.03 µM): 33.6%
